Where “and” joins values, the source holds several entries; their conditions need not be identical. Identical values can stand only once.
System: wild type C57BL/6 and GLP-1R-/- mice
Assay: Mouse glucose tolerance test (IPGTT, wild type and GLP-1R-/- mice)
Format: in vivo
Design: Plasma Insulin Net AUC: unit not given beside the values; Blood Glucose Net AUC: unit not given here
Conditions: for Blood Glucose / Plasma Insulin: 10 mpk, 10 mg/kg; for Blood Glucose Net AUC / Plasma Insulin Net AUC: @ 10, individual animals
Procedure: Wild type C57BL/6 mice and GLP-1R^-/- mice were fed a high fat diet (D12492i, Research Diets) for 6 weeks prior to GTT. On the day of study, mice were fasted at 1 h post lights on, and body weights were measured. […] Mice were then dosed PO at a volume of 10 ml/kg with vehicle (0.5% methylcellulose), MK-2305 (a GPR40 partial agonist described in Hauge et al) at 10 mg/kg, or AP1 at 30 mg/kg. Dosages of MK-2305 and AP1 were administered at maximal efficacious doses as determined by acute dose titrations with efficacy determined via reduction in glucose during an IPGTT (data not shown). […] Blood glucose was measured again (time = 0) just prior to an intraperitoneal (IP) dextrose challenge of 1 g/kg at 10 ml/kg dose volume (Dextrose, Hospira Inc., Lake Forrest IL). A subset of vehicle treated mice was injected with 0.9% NaCl saline to serve as negative control. Blood glucose was then measured at 10, 20, 40, 60, and 120 min after challenge. To capture insulin secretion during the IPGTT, blood via tail vein was collected at t = - 60, 0, 10, 20, 40, 60 min post challenge.
Net AUC was calculated by subtracting the average AUC of the saline group from each groups’ total AUC.
Blood for insulin, glucagon, GLP-1, GIP, and PYY measurements was collected into K2EDTA Microtainer tubes (BD, Franklin Lakes, NJ) pre-treated with DPP4 inhibitor (Millipore, Billerica, MA) and cOmplete™ Protease Inhibitor Cocktail Tablets (Roche Diagnostics, Indianapolis, IN). Tubes were centrifuged for 10 minutes at 5000 RPM, and plasma was aliquotted for analysis. Plasma insulin levels were measured via EIA (Mesoscale Discovery ELISA Kit, Gaithersburg MD). Rat plasma total GLP-1 was measured using Total GLP-1 (ver.2) Assay Kit (Cat#: K150JVC). The measurement of active GLP-1 was carried out in a similar manner as that described for total GLP-1 assay with the exception that MSD Active GLP-1 (ver. 2) assay kit (Cat# K150JWC) was used. Rat plasma glucagon was measured using an in-house glucagon assay developed as a MSD format sandwich immunoassay (Merck & Co., Inc., MRL, Kenilworth, NJ USA). The antibody specificity was cross validated via mass- spec using procedures described in Lee et al. Briefly, MSD Streptavidin Gold plates were coated with 2 μg/ml biotin mouse monoclonal antibody generated to glucagon. Test samples were added to the plates and a separate Sulfo- tagged monoclonal antibody was used to detect the captured glucagon protein (2 μg/ml). The ELISA was carried out in the standard reagents in the MSD format. The plate was read on the SECTOR Imager 6000 Reader. Metabolic hormones GIP (Gastric Inhibitory Polypeptide) and PYY (Peptide YY) were measured in rat plasma using the Rat Metabolic Magnetic Bead Panel (EMD Millipore, Billerica, MA). The assay was performed according to manufacturer protocol.

[1] = GLP-1R-/- and wild type mice, MK-2305 10 mg/kg, AP1 30 mg/kg PO
[2] = KO mice, Time 0, individual animals
[3] = KO mice, Time 10, individual animals
[4] = KO mice, Time 20, individual animals
[5] = KO mice, Time 40, individual animals
[6] = KO mice, Time 60, individual animals
[7] = KO mice, Time -60, individual animals
[8] = WT mice, Time 0, individual animals
[9] = WT mice, Time 10, individual animals
[10] = WT mice, Time 20, individual animals
[11] = WT mice, Time 60, individual animals
[12] = WT mice, Time -60, individual animals

Compound: O=C1NC(=O)C(C2CCOc3cc(Oc4ccc(C(F)(F)F)cc4Cl)ccc32)S1 (stereo not drawn) [MK-2305, reference compound]
- blood glucose excursion during IPGTT [1]: reduced
- insulin following dextrose challenge (IPGTT) [1]: no effect
- Blood Glucose [2]: 151 mg/dL and 150 mg/dL and 186 mg/dL and 194 mg/dL and 152 mg/dL and 171 mg/dL and 161 mg/dL
- Plasma Insulin [2]: 0.848 ng/mL and 0.42 ng/mL and 0.528 ng/mL and 1.053 ng/mL and 0.383 ng/mL and 0.356 ng/mL and 0.379 ng/mL
- Blood Glucose [3]: 359 mg/dL and 371 mg/dL and 443 mg/dL and 389 mg/dL and 416 mg/dL and 530 mg/dL
- Plasma Insulin [3]: 1.175 ng/mL and 0.368 ng/mL and 0.464 ng/mL and 0.199 ng/mL and 0.51 ng/mL and 0.24 ng/mL and 0.661 ng/mL
- Blood Glucose [4]: 361 mg/dL and 257 mg/dL and 455 mg/dL and 411 mg/dL and 438 mg/dL and 432 mg/dL and 566 mg/dL
- Plasma Insulin [4]: 1.151 ng/mL and 0.543 ng/mL and 0.441 ng/mL and 1.015 ng/mL and 0.58 ng/mL and 0.405 ng/mL and 0.254 ng/mL
- Blood Glucose [5]: 332 mg/dL and 292 mg/dL and 386 mg/dL
- Plasma Insulin [5]: 0.591 ng/mL and 0.442 ng/mL and 0.194 ng/mL and 0.983 ng/mL and 0.199 ng/mL and 0.278 ng/mL and 0.213 ng/mL
- Blood Glucose [6]: 346 mg/dL and 269 mg/dL and 435 mg/dL and 335 mg/dL and 332 mg/dL and 352 mg/dL and 512 mg/dL
- Plasma Insulin [6]: 0.58 ng/mL and 0.57 ng/mL and 0.264 ng/mL and 0.784 ng/mL and 0.335 ng/mL and 0.275 ng/mL and 0.261 ng/mL
- Blood Glucose (KO mice, Time 120, individual animals): 303 mg/dL and 186 mg/dL and 397 mg/dL and 270 mg/dL and 224 mg/dL and 260 mg/dL and 402 mg/dL
- Blood Glucose [7]: 180 mg/dL and 203 mg/dL and 200 mg/dL and 205 mg/dL and 188 mg/dL and 236 mg/dL and 197 mg/dL
- Plasma Insulin [7]: 0.786 ng/mL and 0.573 ng/mL and 0.295 ng/mL and 0.819 ng/mL and 0.47 ng/mL and 0.336 ng/mL and 0.379 ng/mL
- Blood Glucose (KO mice, Time -90, individual animals): 165 mg/dL and 181 mg/dL and 160 mg/dL and 198 mg/dL and 154 mg/dL and 193 mg/dL and 185 mg/dL
- Blood Glucose Net AUC (KO mice): 26136 and 8611 and -3694 and 17776 and 10566 and 8161 and 9656
- Plasma Insulin Net AUC (KO mice): -6.842 and 24.846 and 2.455 and -5.609 and 23.949 and -2.988 and -7.445
- Blood Glucose [8]: 173 mg/dl and 130 mg/dl (2×) and 172 mg/dl and 136 mg/dl and 151 mg/dl and 154 mg/dl
- Plasma Insulin [8]: 2.909 ng/mL and 1.344 ng/mL and 1.761 ng/mL and 0.655 ng/mL and 1.362 ng/mL and 1.244 ng/mL and 1.598 ng/mL
- Blood Glucose [9]: 300 mg/dL and 375 mg/dL and 416 mg/dL and 324 mg/dL and 318 mg/dL and 369 mg/dL and 438 mg/dL
- Plasma Insulin [9]: 1.538 ng/mL and 1.501 ng/mL and 2.253 ng/mL and 0.689 ng/mL and 0.787 ng/mL and 2.31 ng/mL and 1.19 ng/mL
- Blood Glucose [10]: 341 mg/dL and 386 mg/dL and 396 mg/dL and 278 mg/dL and 357 mg/dL and 365 mg/dL and 487 mg/dL
- Plasma Insulin [10]: 3.87 ng/mL and 1.373 ng/mL and 1.842 ng/mL and 0.672 ng/mL and 0.733 ng/mL and 1.031 ng/mL and 1.681 ng/mL
- Plasma Insulin (WT mice, Time 40, individual animals): 3.585 ng/mL and 1.27 ng/mL and 1.204 ng/mL and 0.278 ng/mL and 1.824 ng/mL and 0.546 ng/mL and 1.72 ng/mL
- Blood Glucose [11]: 285 mg/dL and 328 mg/dL and 270 mg/dL and 195 mg/dL and 296 mg/dL and 260 mg/dL and 442 mg/dL
- Plasma Insulin [11]: 2.679 ng/mL and 1.626 ng/mL and 1.133 ng/mL and 0.252 ng/mL and 0.763 ng/mL and 0.592 ng/mL and 1.175 ng/mL
- Blood Glucose (WT mice, Time 120, individual animals): 328 mg/dL and 300 mg/dL and 191 mg/dL and 160 mg/dL and 218 mg/dL and 205 mg/dL and 311 mg/dL
- Blood Glucose [12]: 177 mg/dl (2×) and 182 mg/dl and 162 mg/dl (2×) and 153 mg/dl and 176 mg/dl
- Plasma Insulin [12]: 2.201 ng/mL and 1.482 ng/mL and 1.004 ng/mL and 0.467 ng/mL and 0.749 ng/mL and 1.475 ng/mL and 2.049 ng/mL
- Blood Glucose (WT mice, Time -90, individual animals): 182 mg/dL and 151 mg/dL and 166 mg/dL and 146 mg/dL and 175 mg/dL and 155 mg/dL and 164 mg/dL
- Blood Glucose Net AUC (WT mice): 22732 and 10047 and 12357 and 7637 and -1383 and 8197 and 6232
- Plasma Insulin Net AUC (WT mice): 17.355 and 112.532 and 10.066 and 20.452 and -45.584 and -4.157 and -12.281

From publication PMC5650142, “GPR40 partial agonists and AgoPAMs: Differentiating effects on glucose and hormonal secretions in the rodent” (PLoS ONE, 2017)
